For 25 molecules, IC50 results are on record in patent US20220380374A1, “1,4-DIHYDROBENZO[D]PYRAZOLO[3,4-F][1,3]DIAZEPINE DERIVATIVES AND RELATED COMPOUNDS AS LRRK2, NUAK1 AND/OR TYK2 KINASE MODULATORS FOR THE TREATMENT OF E.G. AUTOIMMUNE DISEASE” (Origenis GMBH, priority 2019, published 2022).

Assay [1] has as its target T1, wt human TYK2, catalytic site (Homo sapiens, UniProt P29597).
T1 construct: 2 nM wt human TYK2, catalytic site (SignalChem/CAN); purchased SignalChem/CAN
T1 sequence (P29597 897-1176 limits assumed): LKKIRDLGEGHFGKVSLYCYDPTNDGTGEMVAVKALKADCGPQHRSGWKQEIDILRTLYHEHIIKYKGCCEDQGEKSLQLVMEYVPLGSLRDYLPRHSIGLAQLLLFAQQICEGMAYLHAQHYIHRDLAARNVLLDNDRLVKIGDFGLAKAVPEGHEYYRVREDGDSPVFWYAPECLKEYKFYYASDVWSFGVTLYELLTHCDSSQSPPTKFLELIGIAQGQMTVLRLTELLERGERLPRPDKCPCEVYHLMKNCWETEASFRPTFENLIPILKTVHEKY
Description: HTRF KinEASE assay, TYK2. Type of assay: biochemical. The following applies: 1 μM ATP; read-out: IC50, inhibitory activity toward TYK2. Here is the method:
Basic protocol for HTRF KinEASE assay (Cisbio/FRA) inhibitor studies involved two steps: Enzymatic step: Addition of 4 μl of test compound in corresponding DMSO dilutions, 4 μl of kinase/substrate mixture, 2 μl of ATP into 384 well small volume plates. Incubation for at least 30 minutes at room temperature.
Detection step: Addition of 5 μl antibody and 5 μl streptavidin-XL665, read plate after 60 minutes. Data analysis of emission ratios according to KinEASE assay protocol.
Kinase and assay components were adjusted to final concentrations according to the kit protocol. For TYK2: 2 nM wt human TYK2, catalytic site (SignalChem/CAN), 1 μM HTRF KinEASE-TK Substrate-biotin, 1 μM ATP in 1× Kinase Buffer
(In TR-FRET formats the signal depends on donor and acceptor labels being close together.)

In assay [2] the target is T2, wt human NUAK1, full length (Homo sapiens, UniProt O60285).
T2 construct: 8 nM wt human NUAK1, full length (ThermoFisher/USA); purchased ThermoFisher/USA
T2 sequence (O60285 1-661): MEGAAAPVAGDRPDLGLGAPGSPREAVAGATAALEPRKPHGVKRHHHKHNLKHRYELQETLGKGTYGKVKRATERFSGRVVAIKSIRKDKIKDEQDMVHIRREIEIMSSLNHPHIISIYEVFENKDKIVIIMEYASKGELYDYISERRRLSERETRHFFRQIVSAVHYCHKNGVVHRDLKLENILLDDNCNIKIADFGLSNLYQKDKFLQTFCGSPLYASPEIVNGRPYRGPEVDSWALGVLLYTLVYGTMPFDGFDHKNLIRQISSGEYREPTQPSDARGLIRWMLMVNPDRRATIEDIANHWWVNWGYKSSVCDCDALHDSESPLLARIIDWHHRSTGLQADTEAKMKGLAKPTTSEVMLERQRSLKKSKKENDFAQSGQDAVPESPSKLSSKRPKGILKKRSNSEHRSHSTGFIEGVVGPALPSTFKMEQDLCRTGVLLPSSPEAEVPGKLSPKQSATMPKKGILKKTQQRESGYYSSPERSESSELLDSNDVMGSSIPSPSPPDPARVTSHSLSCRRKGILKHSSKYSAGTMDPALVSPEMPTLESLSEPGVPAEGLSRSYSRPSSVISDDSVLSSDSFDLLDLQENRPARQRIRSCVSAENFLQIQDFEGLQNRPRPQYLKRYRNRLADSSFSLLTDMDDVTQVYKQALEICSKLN
In words: TR-FRET LanthaScreen Eu Kinase Binding Assay, NUAK1. The following applies: 5 nM Kinase Tracer 236; read-out: IC50, inhibitory activity toward NUAK1. Here is the method:
The basic protocol for TR-FRET LanthaScreen Eu Kinase Binding Assay inhibitor studies were performed as follows. LanthaScreen Kinase Binding Assays (ThermoFisher/USA) to evaluate inhibitors were performed by addition of 5 μl of test compound in corresponding DMSO dilutions/5 μl of kinase/antibody mixture, 5 μl of tracer into 384 well small volume plates. After incubation for 1 hour at room temperature, plates were read. Data analysis of emission ratios was according to LanthaScreen Eu Kinase Binding Assay protocol.
Kinase and assay components were adjusted to final concentrations according to the kit protocol. For LRRK2: 5 nM wt human LRRK2, catalytic site, or G2019S human LRRK2, catalytic site (ThermoFisher/USA), 2 nM Eu-Anti-GST Antibody, 10 nM Kinase Tracer 236 in 1× Kinase Buffer A. For NUAK1: 8 nM wt human NUAK1, full length (ThermoFisher/USA), 2 nM Eu-Anti-His Antibody, 5 nM Kinase Tracer 236 in 1× Kinase Buffer A.

Each structure is given as a SMILES string.

Broadly, the IC50 is the concentration that gives 50% inhibition. Take `Cc1ccc2c(c1)-c1[nH]ncc1N=C(c1c(F)cccc1Cl)N2` [Compound 35, 5-(2-chloro-6-fluorophenyl)-9-methyl-1,6-dihydrobenzo[d]pyrazolo[3,4-f][1,3]diazepine]: the IC50 in assay [1] lay within 100 to 1000 nM; in assay [2] it was 10 to 100 nM.

For `Cc1ccc2c(c1)-c1[nH]ncc1N=C(c1c(F)cccc1F)N2` [Compound 36, 5-(2,6-difluorophenyl)-9-methyl-1,6-dihydrobenzo[d]pyrazolo[3,4-f][1,3]diazepine], the IC50 in assay [1] was in the range of 100 to 1000 nM; in assay [2], 10 to 100 nM.

For the molecule `Fc1cccc(Cl)c1C1=Nc2ccc(Cl)cc2-c2[nH]ncc2N1` [Compound 37, 9-chloro-5-(2-chloro-6-fluorophenyl)-1,4-dihydrobenzo[d]pyrazolo[3,4-f][1,3]diazepine], the concentration for half-maximal inhibition (IC50) in assay [1] and in assay [2] was 100 to 1000 nM each time.

As for `COc1ccc2c(c1)-c1[nH]ncc1N=C(c1c(F)cccc1F)N2` [Compound 38, 5-(2,6-difluorophenyl)-9-methoxy-1,6-dihydrobenzo[d]pyrazolo[3,4-f][1,3]diazepine], the IC50 in assay [1] and in assay [2] was 100 to 1000 nM in each case.

For the molecule `COc1ccc2c(c1)-c1[nH]ncc1N=C(c1c(F)cccc1Cl)N2` [Compound 39, 5-(2-chloro-6-fluorophenyl)-9-methoxy-1,6-dihydrobenzo[d]pyrazolo[3,4-f][1,3]diazepine], the IC50 in assay [1] and in assay [2] was 100 to 1000 nM in each case.

For `Fc1cccc(F)c1C1=Nc2cn[nH]c2-c2cc(OC(F)F)ccc2N1` [Compound 42, 9-(difluoromethoxy)-5-(2,6-difluorophenyl)-1,6-dihydrobenzo[d]pyrazolo[3,4-f][1,3]diazepine], the IC50 fell in the range of 100 to 1000 nM in assay [1] and 10 to 100 nM in assay [2].

As for `Fc1cccc(Cl)c1C1=Nc2cn[nH]c2-c2cc(OC(F)F)ccc2N1` [Compound 43, 5-(2-chloro-6-fluorophenyl)-9-(difluoromethoxy)-1,6-dihydrobenzo[d]pyrazolo[3,4-f][1,3]diazepine], the IC50 was in the range of 100 to 1000 nM in assay [1] and 10 to 100 nM in assay [2].

Take `CCc1ccc2c(c1)-c1[nH]ncc1N=C(c1c(F)cccc1Cl)N2` [Compound 45, 5-(2-chloro-6-fluorophenyl)-9-ethyl-1,6-dihydrobenzo[d]pyrazolo[3,4-f][1,3]diazepine]: the IC50 in assay [1] and in assay [2] was 100 to 1000 nM throughout.

For `COc1ccc2c(c1)N=C(c1c(F)cccc1F)Nc1cn[nH]c1-2` [Compound 49, 5-(2,6-difluorophenyl)-8-methoxy-1,4-dihydrobenzo[d]pyrazolo[3,4-f][1,3]diazepine], the figures for the IC50 in assay [1] and in assay [2] were 10 to 100 nM and 100 to 1000 nM, respectively.

Turning to `OCc1ccc2c(c1)-c1[nH]ncc1N=C(c1c(F)cccc1F)N2` [Compound 50, (5-(2,6-difluorophenyl)-1,6-dihydrobenzo[d]pyrazolo[3,4-f][1,3]diazepin-9-yl)methanol], the IC50 in assay [1] is 100 to 1000 nM; in assay [2], 10 to 100 nM.

`Fc1cccc(F)c1C1=Nc2ccncc2-c2[nH]ncc2N1` [Compound 53, 5-(2,6-difluorophenyl)-1,4-dihydropyrazolo[4,3-d]pyrido[3,4-f][1,3]diazepine]: the IC50 in assay [1] and in assay [2] was 10 to 100 nM throughout.

With `Cc1cnc2c(c1)-c1[nH]ncc1N=C(c1c(F)cccc1F)N2` [Compound 61, 5-(2,6-difluorophenyl)-9-methyl-1,6-dihydropyrazolo[4,3-d]pyrido[3,2-f][1,3]diazepine], the IC50 in assay [1] is 100 to 1000 nM; in assay [2], 10 to 100 nM.

Take `Fc1cccc(F)c1C1=Nc2cn[nH]c2-c2cc(Cl)cnc2N1` [Compound 64, 9-chloro-5-(2,6-difluorophenyl)-1,6-dihydropyrazolo[4,3-d]pyrido[3,2-f][1,3]diazepine]: the concentration for half-maximal inhibition (IC50) in assay [1] fell in the range of 100 to 1000 nM; in assay [2], 10 to 100 nM.

`Fc1cccc(F)c1C1=Nc2cn[nH]c2-c2cn(-c3ccccc3)nc2N1` [Compound 68, 5-(2,6-difluorophenyl)-8-phenyl-6,8-dihydro-1H-dipyrazolo[3,4-d:3 ′,4′-f][1,3]diazepine]: the IC50 in assay [1] and in assay [2] was 10 to 100 nM each time.

As to `Fc1cccc(F)c1C1=Nc2c(Br)n[nH]c2-c2ccccc2N1` [Compound 69, 3-bromo-5-(2,6-difluorophenyl)-1,6-dihydrobenzo[d]pyrazolo[3,4-f][1,3]diazepine], the IC50 in assay [1] and in assay [2] was 10 to 100 nM throughout.

As to `Fc1cccc(F)c1C1=Nc2cnccc2-c2[nH]ncc2N1` [Compound 71, 5-(2,6-difluorophenyl)-1,4-dihydropyrazolo[4,3-d]pyrido[4,3-f][1,3]diazepine], the figures for the IC50 in assay [1] and in assay [2] were 10 to 100 nM and below 10 nM, respectively.

Consider `Fc1cccc(F)c1C1=Nc2cn[nH]c2-c2cn[nH]c2N1` [Compound 72, 5-(2,6-difluorophenyl)-6,7-dihydro-1H-dipyrazolo[3,4-d:3′,4′-f][1,3]diazepine], for which the IC50 in assay [1] and in assay [2] was 10 to 100 nM each time.

Consider `O=C(O)c1ccc2c(c1)N=C(c1c(F)cccc1F)Nc1cn[nH]c1-2` [Compound 73, 5-(2,6-difluorophenyl)-1,4-dihydrobenzo[d]pyrazolo[3,4-f][1,3]diazepine-8-carboxylic acid], for which the IC50 in assay [1] was below 10 nM; in assay [2], 10 to 100 nM.

With `Cc1n[nH]c2c1NC(c1c(F)cccc1F)=Nc1ccccc1-2` [Compound 76, 5-(2,6-difluorophenyl)-3-methyl-1,4-dihydrobenzo[d]pyrazolo[3,4-f][1,3]diazepine], the IC50 in assay [1] and in assay [2] was 10 to 100 nM in each case.

Consider `O=C(c1ccc2c(c1)N=C(c1c(F)cccc1Cl)Nc1cn[nH]c1-2)N1CCOCC1` [Compound 78, (5-(2-chloro-6-fluorophenyl)-1,4-dihydrobenzo[d]pyrazolo[3,4-f][1,3]diazepin-8-yl)(morpholino)methanone], for which the IC50 in assay [1] and in assay [2] was 100 to 1000 nM each time.

For `Fc1cccc(Cl)c1C1=Nc2c(Br)n[nH]c2-c2cccnc2N1` [Compound 88], the IC50 in assay [1] and in assay [2] was 10 to 100 nM each time.

On to `FC(F)Oc1ccc2c(c1)-c1[nH]ncc1N=C(c1c(Cl)cccc1Cl)N2` [Compound 90, 5-(2,6-dichlorophenyl)-9-(difluoromethoxy)-1,6-dihydrobenzo[d]pyrazolo[3,4-f][1,3]diazepine], for which the IC50 in assay [1] and in assay [2] was 100 to 1000 nM each time.

Regarding `NC(=O)c1ccc2c(c1)-c1[nH]ncc1NC(c1c(F)cccc1F)=N2` [Compound 93, 5-(2,6-difluorophenyl)-1,4-dihydrobenzo[d]pyrazolo[3,4-f][1,3]diazepine-9-carboxamide], the results for the IC50 in assay [1] and in assay [2] were 100 to 1000 nM and 10 to 100 nM, respectively.

In the case of `NC(=O)c1ccc2c(c1)-c1[nH]ncc1N=C(c1c(F)cccc1Cl)N2` [Compound 94, 5-(2-chloro-6-fluorophenyl)-1,6-dihydrobenzo[d]pyrazolo[3,4-f][1,3]diazepine-9-carboxamide], the IC50 in assay [1] lay within 100 to 1000 nM; in assay [2], 10 to 100 nM.

`O=C(NC1CCOCC1)c1ccc2c(c1)N=C(c1c(F)cccc1F)Nc1cn[nH]c1-2` [Compound 95, 5-(2,6-difluorophenyl)-N-(tetrahydro-2H-pyran-4-yl)-1,4-dihydrobenzo[d]pyrazolo[3,4-f][1,3]diazepine-8-carboxamide]: the IC50 in assay [1] was below 10 nM; in assay [2], 10 to 100 nM.
